These results are taken from PubChem BioAssay AID2124 (Sanford-Burnham Center for Chemical Genomics, 2009).

Inconclusive results are not listed. Active and inactive are the calls of the source. The rule behind the calls is not given here; tested in MIN6 cells.

This assay is described as follows: GFP-wavelength compound autofluorescence in cells – imaging, high-content imaging, artefact control, dose response (AID 2124).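 For all read-outs here: cells exposed to compound for 48 hours before fixing.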 As to conditions: cells, GFP-channel autofluorescence, high-content imaging, at 10 µM; for z-score: stronger effect = higher value.

Consider `Cc1csc(NC(=O)CN(C)S(=O)(=O)c2cccc3cccnc23)n1`, for which the z-score was -0.33 (inactive) and the cell count stood at 3250 cells.
In the case of `Cc1cccc(Oc2nccc(C(F)(F)F)c2C(=O)Nc2ccc(F)cc2F)c1`, the z-score was -0.39 (inactive) and the cell count came to 3510 cells.
As to `Cc1nn(-c2ccccc2)c(C)c1NC(=O)CCl`, the z-score is -0.33 (inactive) and the cell count was determined as 1910 cells.
As to `CC(NC(=O)/C(C#N)=C1\N=C(NC(=O)c2cccs2)c2ccccc21)c1ccccc1` (configuration not stated), the z-score was -0.38 (inactive) and the cell count was 2810 cells.
Regarding `CCOc1ccc(NC(=O)Cn2c(=O)oc3ccccc32)cc1`, the z-score is -0.25 (inactive) and the cell count is 3070 cells.
For the compound `CC(Sc1ccccc1)C(=O)NN=C1CCCCCC1` (configuration not stated), the z-score was -0.39 (inactive) and the cell count came to 2920 cells.
The corresponding values for `COc1ccc(/C=C(\C#N)C(=O)OCC(=O)Nc2c(C)cccc2C(C)C)cc1` are -0.39 (inactive) and 2950 cells.
With `CC(C)(C)c1ccc(OCC(=O)Nc2ccc3c4c(cccc24)C(=O)NC3=O)cc1`, the z-score was -0.31 (inactive) and the cell count was 2490 cells.
For `Cn1c(=O)c(NC2CCCCC2)c2c3c(cccc31)C(=O)c1ccccc1-2`, the z-score is 3.32 and the cell count turned out to be 3050 cells.
For the compound `Nc1c(C(=O)C2CC2)sc2nc(-c3ccccc3)cc(C(F)(F)F)c12`, the z-score is 0.39 and the cell count was 3090 cells.
In the case of `O=C(CSc1nc2ccc(Cl)cc2o1)NCc1ccc2c(c1)OCO2`, the z-score is -0.33 (inactive) and the cell count was 3140 cells.
Turning to `COc1ccc(C2C(C(=O)N3CCOCC3)CCC(=O)N2c2ccc(OC)cc2)cc1` (configuration not stated), the z-score was -0.26 (inactive) and the cell count stood at 3020 cells.
In the case of `O=C(CC12CC3CC(CC(C3)C1)C2)NCC(=O)N1CCc2ccccc2C1`, the z-score is -0.33 (inactive) and the cell count stood at 2920 cells.
Take `CCOc1cc(C)c(S(=O)(=O)Nc2ccc3cn[nH]c3c2)cc1C`: the z-score was -0.33 (inactive) and the cell count came out at 1550 cells.
In the case of `CCn1c2ccccc2c2nnc(SCC(=O)Nc3cc(C)on3)nc21`, the z-score is -0.33 (inactive) and the cell count stood at 3100 cells.
Take `O=C(OCC(=O)N1CCN(C(=O)c2ccco2)CC1)c1ccccc1OCc1ccccc1`: the z-score was -0.38 (inactive) and the cell count turned out to be 2850 cells.
For `Cc1ccc([N+](=O)[O-])cc1NC(=O)c1cccs1`, the z-score is -0.33 (inactive) and the cell count is 3030 cells.
As to `CN(C)/C=C1/Nc2ccccc2C1=O`, the z-score is -0.36 (inactive) and the cell count came to 3060 cells.
As for `O=C(COc1ccc(Cl)cc1)NCc1nnc(SCC(=O)NC2CCCCC2)o1`, the z-score was -0.32 (inactive) and the cell count is 3660 cells.
As to `c1ccc(-c2csc(-n3cnnn3)n2)cc1`, the z-score is -0.38 (inactive) and the cell count was 3240 cells.
Turning to `Cc1ccc(Nc2nc3c([nH]2)c(=O)n(C)c(=O)n3C)cc1`, the z-score is -0.39 (inactive) and the cell count was determined as 2720 cells.
On to `CC(=O)NC(c1ccc(Cl)cc1)c1c(O)ccc2ccc(O)cc12` (configuration not stated), for which the z-score was -0.38 (inactive) and the cell count amounted to 3140 cells.
Take `COc1ccc(C)cc1NC(=O)COC(C)=O`: the z-score is -0.33 (inactive) and the cell count was found to be 3030 cells.
`CC(C)C1S/C(=N/N=C/c2ccco2)NC1=O` (configuration not stated): the z-score was -0.33 (inactive) and the cell count was determined as 3160 cells.
Consider `O=C1CCCC(O)=C1C=NCCc1ccccc1`, for which the z-score was -0.38 (inactive) and the cell count is 3080 cells.
`CCN(CC)c1ccc2cc(-c3nc4ccccc4[nH]3)c(=O)oc2c1`: the z-score was 5.37 and the cell count stood at 1680 cells.
For the compound `O=C(COC(=O)c1cc(S(=O)(=O)N2CCOCC2)ccc1O)NCC1CCCO1` (configuration not stated), the z-score is -0.33 (inactive) and the cell count is 3080 cells.
Take `CCOC(=O)/C(=C\C=C1/Sc2cc(OCC)c(OCC)cc2N1CC)C(C)=O`: the z-score is 0.55 and the cell count came to 2790 cells.
In the case of `Cc1[nH]n(-c2ccc([N+](=O)[O-])cc2)c(=O)c1C=NCCN1CCN(C(=O)c2ccccc2F)CC1`, the z-score was -0.26 (inactive) and the cell count came out at 3100 cells.
As for `CCN1C=CC2=C(C#N)C(N)C(C#N)(C#N)C(c3ccccc3C(F)(F)F)C2C1` (configuration not stated), the z-score was 0.77 and the cell count was found to be 2720 cells.
As to `CCOC(=O)/C(C#N)=C/C=C1\C=Cc2ccccc2N1CC`, the z-score is -0.28 (inactive) and the cell count is 2720 cells.
`OC1(c2cn(Cc3ccccc3)nn2)CCCCC1`: the z-score was -0.33 (inactive) and the cell count came out at 3100 cells.
The corresponding values for `Cc1cc(SCCOc2ccccc2)nc(N)n1` are -0.39 (inactive) and 3470 cells.
With `CCCCCn1nc(-c2ccccc2)c2nc3ccccc3nc21`, the z-score is 1.27 and the cell count came to 3200 cells.
Consider `CCN(CC)CCn1c(=S)[nH]c2ccc(Cl)cc2c1=O`, for which the z-score was -0.33 (inactive) and the cell count was found to be 2890 cells.
In the same order, the values of `COC(=O)c1[nH]c2cccc(Cl)c2c1NC(=O)CN(C)C1CCCCC1` are -0.33 (inactive) and 3280 cells.
The corresponding values for `Cc1ccc(N2C(=O)c3cccc4c(N5CCN(C)CC5)ccc(c34)C2=O)c2cccnc12` are 0.07 and 1800 cells.
The corresponding values for `CCCSc1nc2sc3c(c2c(=O)[nH]1)CCN(Cc1ccccc1)C3` are -0.3 (inactive) and 3160 cells.
Consider `CC1(C)Cc2c(c(-c3ccccc3)[nH]c(=O)c2C#N)CO1`, for which the z-score was -0.33 (inactive) and the cell count stood at 3520 cells.
In the same order, the values of `N#Cc1ccc(-c2ccccc2)nc1SCC(=O)c1cccc(Cl)c1` are -0.23 (inactive) and 3340 cells.
Regarding `COc1cccc2c(=O)n(CC(=O)Nc3cccc(F)c3)ccc12`, the z-score was -0.33 (inactive) and the cell count was found to be 3120 cells.
With `CCN(CC)c1ccc2cc(C#N)c(=O)oc2c1`, the z-score was -0.32 (inactive) and the cell count stood at 3390 cells.
`CN1CCN(C2=CC3=CC(=C(C#N)C#N)CCC3CC2)CC1` (configuration not stated): the z-score is 0.91 and the cell count turned out to be 2810 cells.
For `COc1cc(OC)c(OC)cc1/C=C1\Oc2cc(OS(C)(=O)=O)ccc2C1=O`, the z-score was -0.24 (inactive) and the cell count is 3060 cells.
In the same order, the values of `CC(C)C(C)(C#N)NC(=O)CSc1nnc(C(F)(F)F)n1C` (configuration not stated) are -0.33 (inactive) and 3010 cells.
Regarding `O=C(/C=C/c1ccco1)NC(=S)Nc1ccccc1N1CCCC1`, the z-score was -0.39 (inactive) and the cell count stood at 2690 cells.
Consider `CNC(=O)c1ccc(-c2sc3nc(N4CCOCC4)c4c(c3c2N)CC(C)(C)OC4)o1`, for which the z-score was -0.33 (inactive) and the cell count is 2290 cells.
In the same order, the values of `C=CCN1C(=O)/C(=C/C=C2/N(CC)c3ccc(S(=O)(=O)N(C)C)cc3N2CC)SC1=S` are 0.26 and 2740 cells.
For the compound `Cc1ccc(-n2c(O)c(/C=N/NC(=O)C3COc4ccccc4O3)c3ccccc3c2=O)cc1` (configuration not stated), the z-score is -0.25 (inactive) and the cell count came to 2870 cells.
In the same order, the values of `O=C(NCc1cn2ccccc2n1)c1ccco1` are -0.33 (inactive) and 3100 cells.
In the same order, the values of `NCC12CC3CC(C1)CC(CN)(C3)C2` are -0.36 (inactive) and 3300 cells.
For `COC(=O)c1c(NC(=O)CC2Nc3cc(C)c(C)cc3NC2=O)sc(C)c1C` (configuration not stated), the z-score was -0.38 (inactive) and the cell count turned out to be 3120 cells.
The corresponding values for `Cn1c(C(=O)N2CCC(C(=O)N3CCN(Cc4ccc5c(c4)OCO5)CC3)CC2)cc2sccc21` are -0.39 (inactive) and 2820 cells.
`Cc1ccnc(N2C(=O)c3cccc4c([N+](=O)[O-])ccc(c34)C2=O)c1`: the z-score is 0.09 and the cell count is 350 cells.
Turning to `Cn1c(=O)n(C)c2cc(NC(=O)COc3ccc(Cl)cc3)ccc21`, the z-score was -0.33 (inactive) and the cell count came to 3010 cells.
The corresponding values for `Cc1cc(/C=C2\NC(=S)N(C)C2=O)ccc1N1CCCC1` are 0.07 and 2980 cells.
`CCCCCCc1cc2cc(-c3nnc(-c4ccccc4O)o3)c(=O)oc2cc1O`: the z-score was -0.21 (inactive) and the cell count was found to be 2760 cells.
As for `O=C(C1=NN(c2ccccc2)C2C(=O)N(c3cccc(Cl)c3)C(=O)C12)c1ccccc1` (configuration not stated), the z-score is -0.32 (inactive) and the cell count came to 3140 cells.
In the same order, the values of `CCCCN1C(=O)C2(NNc3ccccc3O2)c2ccccc21` (configuration not stated) are -0.31 (inactive) and 2820 cells.
With `Oc1c(/C=C/C=C/C=Nc2ccccc2)sc(=S)n1Cc1ccccc1`, the z-score was -0.33 (inactive) and the cell count worked out at 2740 cells.
In the same order, the values of `CCCC1C2CN(C(C)C)CC=C2C(C#N)=C(N)C1(C#N)C#N` (configuration not stated) are 0.45 and 2800 cells.
Regarding `Cc1noc(/C=C/c2ccc(-c3ccccc3Cl)o2)c1[N+](=O)[O-]`, the z-score was 0.5 and the cell count was determined as 3160 cells.
Take `CCN(CC)c1ccc2cc(S(=O)(=O)c3ccc(Cl)cc3)c(=O)oc2c1`: the z-score is -0.31 (inactive) and the cell count amounted to 2590 cells.
For the compound `O=C(c1cc([N+](=O)[O-])ccc1N1CCCC1)N1CCCC1`, the z-score was -0.38 (inactive) and the cell count stood at 3210 cells.
For `CCCN1CC=C2C(C#N)=C(N)C(C#N)(C#N)C(c3cc(OC)ccc3OC)C2C1` (configuration not stated), the z-score is 0.52 and the cell count was found to be 3140 cells.
As for `Cc1c(C(=O)O)cccc1-c1ccc(/C=C2/NC(=O)N(c3ccccc3)C2=O)o1`, the z-score was -0.39 (inactive) and the cell count was 3120 cells.
